In PubChem BioAssay (NCI):
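Method: 48-hour compound exposure of cells in 96-well plates, five concentrations, linear interpolation of endpoints. GI50 is the concentration that inhibits growth by half. TGI is the concentration that stops growth completely.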

Assays:
Experiment in all cases: DTP human tumour cell line panel, 48 h
[1] = system: TK-10 renal
[2] = system: HCC-2998 colon
[3] = system: M14 melanoma
[4] = system: ACHN renal
[5] = system: 786-0 renal
[6] = system: LOX IMVI melanoma
[7] = system: SK-MEL-28 melanoma
[8] = system: HCT-116 colon
[9] = system: HOP-92 NSCLC
[10] = system: SK-MEL-2 melanoma
[11] = system: HS 578T breast
[12] = system: T-47D breast
[13] = system: HL-60(TB) leukemia
[14] = system: MALME-3M melanoma
[15] = system: HCT-15 colon
[16] = system: MDA-MB-435
[17] = system: RPMI-8226 leukemia
[18] = system: CCRF-CEM leukemia
[19] = system: MOLT-4 leukemia
[20] = system: HT29 colon
[21] = system: OVCAR-8 ovarian
[22] = system: A549 NSCLC
[23] = system: MDA-MB-468 breast
[24] = system: OVCAR-5 ovarian
[25] = system: NCI-H23 lung
[26] = system: IGROV1 ovarian
[27] = system: NCI-H460 lung
[28] = system: CAKI-1 renal
[29] = system: KM12 colon
[30] = system: OVCAR-3 ovarian
[31] = system: UO-31 renal
[32] = system: SK-MEL-5 melanoma
[33] = system: SF-539 CNS
[34] = system: K-562 leukemia
[35] = system: NCI-H226 lung
[36] = system: SW-620 colon
[37] = system: SNB-75 CNS
[38] = system: U251 CNS
[39] = system: COLO 205 colon
[40] = system: SR leukemia
[41] = system: HOP-62 NSCLC
[42] = system: SN12C renal
[43] = system: BT-549 breast
[44] = system: UACC-257 melanoma
[45] = system: DU-145 prostate
[46] = system: SNB-19 CNS
[47] = system: A498 renal
[48] = system: SF-268 CNS
[49] = system: EKVX NSCLC
[50] = system: SF-295 CNS
[51] = system: UACC-62 melanoma
[52] = system: MCF7 breast
[53] = system: RXF 393 renal
[54] = system: OVCAR-4 ovarian
[55] = system: NCI-H522 lung
[56] = system: PC-3 prostate
[57] = system: MDA-MB-231 breast
[58] = system: SK-OV-3 ovarian

## Cc1ccc(-c2cc(-c3cc4ccccc4nc3Cl)[nH]c(=O)n2)cc1
[1]
  GI50: 15.1 µM
  TGI: 29.7 µM
[2]
  GI50: 15.3 µM
  TGI: 29.4 µM
[3]
  GI50: 10.7 µM
  TGI: 30.1 µM
[4]
  GI50: 16.3 µM
  TGI: 32.9 µM
[5]
  GI50: 4.71 µM
  TGI: 17.5 µM
[6]
  GI50: 8.43 µM
  TGI: 23.9 µM
[7]
  GI50: 16.2 µM
  TGI: 30.2 µM
[8]
  GI50: 3.31 µM
  TGI: 14 µM
[9]
  GI50: 2.73 µM
  TGI: 14.5 µM
[10]
  GI50: 14.4 µM
  TGI: 30.6 µM
[11]
  GI50: 13 µM
  TGI: 83.4 µM
[12]
  GI50: 16.4 µM
  TGI: 77.3 µM
[13]
  GI50: 1.89 µM
  TGI: 14.6 µM
[14]
  GI50: 14.8 µM
  TGI: 29.1 µM
[15]
  GI50: 13 µM
  TGI: 45.1 µM
[16]
  GI50: 14.9 µM
  TGI: 31.5 µM
[17]
  GI50: 3.17 µM
  TGI: 17.8 µM
[18]
  GI50: 3.94 µM
  TGI: 35.5 µM
[19]
  GI50: 2.66 µM
  TGI: 12.4 µM
[20]
  GI50: 16 µM
  TGI: 34.6 µM
[21]
  GI50: 18.5 µM
  TGI: 76.8 µM
[22]
  GI50: 22.1 µM
  TGI: > 100 µM
[23]
  GI50: 12.7 µM
  TGI: 44.3 µM
[24]
  GI50: 16.9 µM
  TGI: 32.5 µM
[25]
  GI50: 12.2 µM
  TGI: 30.2 µM
[26]
  GI50: 16 µM
  TGI: 37.2 µM
[27]
  GI50: 10 µM
  TGI: 29.3 µM
[28]
  GI50: 11.9 µM
  TGI: 26.5 µM
[29]
  GI50: 7.63 µM
  TGI: 24.8 µM
[30]
  GI50: 10.3 µM
  TGI: 22.5 µM
[31]
  GI50: 10.4 µM
  TGI: 22.2 µM
[32]
  GI50: 17.7 µM
  TGI: 33.7 µM
[33]
  GI50: 12.1 µM
  TGI: 24.7 µM
[34]
  GI50: 2.61 µM
  TGI: 13.2 µM
[35]
  GI50: 13.1 µM
  TGI: 37.2 µM
[36]
  GI50: 13.8 µM
  TGI: 34.4 µM
[37]
  GI50: 11.4 µM
  TGI: 40.2 µM
[38]
  GI50: 9.95 µM
  TGI: 28.6 µM
[39]
  GI50: 18 µM
  TGI: 38.8 µM
[40]
  GI50: 1.2 µM
  TGI: 4.33 µM
[41]
  GI50: 14.2 µM
  TGI: 31.5 µM
[42]
  GI50: 15.8 µM
  TGI: 33 µM
[43]
  GI50: 2.73 µM
  TGI: 7.87 µM
[44]
  GI50: 16.7 µM
  TGI: 35.7 µM
[45]
  GI50: 13.1 µM
  TGI: 26.9 µM
[46]
  GI50: 11.3 µM
  TGI: 23.9 µM
[47]
  GI50: 14.4 µM
  TGI: 30.5 µM
[48]
  GI50: 13.8 µM
  TGI: 32.3 µM
[49]
  GI50: 17.6 µM
  TGI: 54.8 µM
[50]
  GI50: 16.9 µM
  TGI: 35.1 µM
[51]
  GI50: 14 µM
  TGI: 30 µM
[52]
  GI50: 6.08 µM
  TGI: 22.4 µM
[53]
  GI50: 14.6 µM
  TGI: 32.6 µM
[54]
  GI50: 20.9 µM
  TGI: > 100 µM
[55]
  GI50: 13.9 µM
  TGI: 27.3 µM
[56]
  GI50: 12 µM
  TGI: 37 µM
[57]
  GI50: 13.9 µM
  TGI: 32.4 µM
[58]
  GI50: 29.2 µM
  TGI: > 100 µM
